Source: ChEMBL document CHEMBL4000220, “Optimization of spirocyclic proline tryptophan hydroxylase-1 inhibitors” (Bioorg Med Chem Lett, 2017)

Assays:
[1] = Prodrug activation in rat hepatocytes assessed as ester hydrolysis by measuring 8-(2-amino-6-((R)-1-(4-chloro-2-(3-methyl-1H-pyrazol-1-yl)phenyl)-2,2,2-trifluoroethoxy)pyrimidin-4-yl)-2,8-diazaspiro[4.5]decane-3-carboxylic acid level by LC/UV/MS method; type: cell-based, Hepatocyte
[2] = Drug metabolism in rat hepatocytes assessed as 8-(2-amino-6-((R)-1-(2-(3-carboxy-1H-pyrazol-1-yl)-4-chlorophenyl)-2,2,2-trifluoroethoxy)pyrimidin-4-yl)-2,8-diazaspiro[4.5]decane-3-carboxylic acid formation by LC/UV/MS method; type: ADME, cell-based, Hepatocyte
[3] = Drug metabolism in rat hepatocytes assessed as 8-(2-amino-6-((R)-1-(4-chloro-2-(3-(sulfooxymethyl)-1H-pyrazol-1-yl)phenyl)-2,2,2-trifluoroethoxy)pyrimidin-4-yl)-2,8-diazaspiro[4.5]decane-3-carboxylic acid formation by LC/UV/MS method; type: ADME, cell-based, Hepatocyte
[4] = Drug metabolism in rat hepatocytes assessed as hydroxylation by measuring 8-(2-amino-6-((R)-1-(4-chloro-2-(3-(hydroxymethyl)-1H-pyrazol-1-yl)phenyl)-2,2,2-trifluoroethoxy)pyrimidin-4-yl)-2,8-diazaspiro[4.5]decane-3-carboxylic acid level by LC/UV/MS method; type: ADME, cell-based, Hepatocyte

Drug metabolism [1]: Metabolite_Detected | Drug metabolism [2]: Metabolite_Detected | Drug metabolism [3]: Metabolite_Detected | Drug metabolism [4]: Metabolite_Detected
Compound: CCOC(=O)C1CC2(CCN(c3cc(O[C@H](c4ccc(Cl)cc4-n4ccc(C)n4)C(F)(F)F)nc(N)n3)CC2)CN1 (some centres undefined)
